This is an account of results in ChEMBL document CHEMBL2074090, “Characterization of the transport properties of cloned rat multidrug resistance-associated protein 3 (MRP3)” (J Biol Chem, 1999).

The target in data set [1] is T1, MRP3 (ABCC3, ATP-binding cassette sub-family C member 3) (Rattus norvegicus, UniProt O88563). In words: TP_TRANSPORTER: inhibition of E217betaG uptake (E217betaG: 0.1 uM, E1S: 500 uM) in membrane vesicle from Mrp3-expressing LLC-PK1 cells. Details: scale not given: the % may be the effect or the level left. In kind it is functional, cell membranes. The conditions noted are these: pig, membrane vesicles from Mrp3-expressing LLC-PK1 cells, probe E217betaG; read-out: Activity.

Data set [2] concerns the target ATP-binding cassette sub-family C member 3 (Rattus norvegicus, UniProt O88563). In words: (§1) TP_TRANSPORTER: uptake in membrane vesicle from Mrp3-expressing LLC-PK1 cells. In kind it is functional, cell membranes. The note with it: pig.
Data set [3] has as its target T1, MRP3 (ABCC3, ATP-binding cassette sub-family C member 3). In words: TP_TRANSPORTER: inhibition of E217betaG uptake (E217betaG: 0.1 uM, E3040 glucuronide: 50 uM) in membrane vesicles from MRP3-expressing HeLa cells. In kind it is functional, cell membranes, Membrane vesicle. Details: scale not given: the % may be the effect or the level left. The note with it: human, probe E217betaG, read-out: Activity.

The target is the same in data set [4]. Nature of the data set: TP_TRANSPORTER: inhibition of E217betaG uptake (E217betaG: 0.1 uM, MTX: 1000 uM) in membrane vesicles from MRP3-expressing HeLa cells. It is filed as functional, cell membranes, Membrane vesicle. Details: scale not given: the % may be the effect or the level left. The conditions noted are these: human, probe E217betaG, read-out: Activity.

Data set [5] shares this target. Nature of the data set: TP_TRANSPORTER: inhibition of E217betaG uptake (E217betaG: 0.1 uM, MTX: 1000 uM) in membrane vesicles from MRP3-expressing LLC-PK1 cells. In kind it is functional, cell membranes, Membrane vesicle. Set-up: scale not given: the % may be the effect or the level left. The conditions noted are these: pig, probe E217betaG, read-out: Activity.
Data set [6] has the same target. In words: TP_TRANSPORTER: inhibition of E217betaG uptake (E217betaG: 0.1 uM, LTC4: 2.5 uM) in membrane vesicle from Mrp3-expressing LLC-PK1 cells. It is filed as functional, cell membranes. Details: scale not given: the % may be the effect or the level left. The note with it: pig, membrane vesicles from Mrp3-expressing LLC-PK1 cells, probe E217betaG; read-out: Activity.

The target is the same in data set [7]. In words: TP_TRANSPORTER: inhibition of E217betaG uptake (E217betaG: 0.1 uM, alpha-naphthyl beta-D-glucuronide: 200 uM) in membrane vesicle from Mrp3-expressing LLC-PK1 cells. In kind it is functional, cell membranes. Set-up: scale not given: the % may be the effect or the level left. The note with it: pig, membrane vesicles from Mrp3-expressing LLC-PK1 cells, probe E217betaG; read-out: Activity.

Data set [8] shares this target. Nature of the data set: TP_TRANSPORTER: inhibition of E217betaG uptake (E217betaG: 0.1 uM, DNP-SG: 500 uM) in membrane vesicles from MRP3-expressing LLC-PK1 cells. In kind it is functional, cell membranes, Membrane vesicle. The conditions noted are these: pig, probe E217betaG, read-out: Activity. Set-up: scale not given: the % may be the effect or the level left.

Data set [9] has the same target. In words: TP_TRANSPORTER: inhibition of E217betaG uptake (E217betaG: 0.1 uM, 4-methylumbeliferone glucuronide: 500 uM) in membrane vesicle from Mrp3-expressing LLC-PK1 cells. It is filed as functional, cell membranes. Set-up: scale not given: the % may be the effect or the level left. The note with it: pig, membrane vesicles from Mrp3-expressing LLC-PK1 cells, probe E217betaG; read-out: Activity.

Substrate in data set [10]: C[C@]12CC[C@@H]3c4ccc(O)cc4CC[C@H]3[C@@H]1CC[C@@H]2O[C@@H]1O[C@H](C(=O)O)[C@@H](O)[C@H](O)[C@H]1O
The description is as §1. In kind it is functional, cell membranes.

Consider `C[C@]12CC[C@@H]3c4ccc(OS(=O)(=O)O)cc4CC[C@H]3[C@@H]1CCC2=O` [ESTRONE SULFURIC ACID], for which the activity at 500 µM in [1] was 33.3%. With `CNc1nc2c(Cc3cccnc3)c(C)c(O[C@@H]3O[C@H](C(=O)O)[C@@H](O)[C@H](O)[C@H]3O)c(C)c2s1` [E3040 GLUCURONIDE], the Activity result in data set [2] was “substrate [+]”. Besides, the activity at 50 µM in data set [3] is 11.1%. Take `CN(Cc1cnc2nc(N)nc(N)c2n1)c1ccc(C(=O)N[C@@H](CCC(=O)O)C(=O)O)cc1` [METHOTREXATE]: in data set [2], the Activity entry is “substrate [+]”. Further, the activity at 1000 µM was determined as 18.5% in data set [4] and 10.7% in data set [5]. For `CCCCC/C=C\C\C=C/C=C/C=C/[C@@H](SC[C@@H](NC(=O)CC[C@H](N)C(=O)O)C(=O)NCC(=O)O)[C@@H](O)CCCC(=O)O` [LEUKOTRIEN C4], in data set [6], the activity at 2.5 µM came to 57%.

With `O=C(O)[C@H]1O[C@@H](Oc2cccc3ccccc23)[C@H](O)[C@@H](O)[C@@H]1O`, the activity at 200 µM in [7] was 23.6%. `N[C@@H](CCC(=O)N[C@H](CSc1ccc([N+](=O)[O-])cc1[N+](=O)[O-])C(=O)NCC(=O)O)C(=O)O`: the activity at 500 µM in [8] turned out to be 14.4%. `O=C(O)[C@H]1O[C@@H](OCc2cc(=O)oc3cc(O)ccc23)[C@H](O)[C@@H](O)[C@@H]1O`: in data set [9], the activity at 500 µM is 14.1%.

B1: ATP-binding cassette sub-family C member 3 (Rattus norvegicus) (protein)
chain: MDRLCGSGELGSKFWDSNLTVYTNTPDLTPCFQNSLLAWVPCIYLWAALPCYLFYLRHHRLGYIVLSCLSRLKTALGVLLWCISWVDLFYSFHGLVHGSSPAPVFFITPLLVGITMLLATLLIQYERLRGVRSSGVLIIFWLLCVICAIIPFRSKILLALAEGKILDPFRFTTFYIYFALVLCAFILSCFQEKPPLFSPENLDTNPCPEASAGFFSRLSFWWFTKLAILGYRRPLEDSDLWSLSEEDCSHKVVQRLLEAWQKQQTQASGPQTAALEPKIAGEDEVLLKARPKTKKPSFLRALVRTFTSSLLMGACFKLIQDLSPSSTHSCSASSSGLFRPHGPYWWGFLLAGLMFVSSTMQTLILHQHYHCIFVMALRIRTAIIGVIYRKALTITNSVKREYTVGEMVNLMSVDAQRFMDVSPFINLLWSAPLQVILAIYFLWQILGPSALAGVAVIVLLIPLNGAVSMKMKTYQVQQMKFKDSRIKLMSEILNGIKVLKLYAWEPTFLEQVEGIRQGELQLLRKGAYLQAISTFIWVCTPFMVTLITLGVYVCVDKNNVLDAEKAFVSLSLFNILKIPLNLLPQLISGMTQTSVSLKRIQDFLNQDELDPQCVERKTISPGRAITIHNGTFSWSKDLPPTLHSINIQIPKGALVAVVGPVGCGKSSLVSALLGEMEKLEGAVSVKGSVAYVPQQAWIQNCTLQENVLFGQPMNPKRYQQALETCALLADLDVLPGGDQTEIGEKGINLSGGQRQRVSLARAVYSDANIFLLDDPLSAVDSHVAKHIFDQVIGPEGVLAGKTRVLVTHGISFLPQTDFIIVLADGQITEMGHYSELLQHDGSFANFLRNYAPDENQEANEGVLQHANEEVLLLEDTLSTHTDLTDTEPAIYEVRKQFMREMSSLSSEGEGQNRPVLKRYTSSLEKEVPATQTKETGALIKEEIAETGNVKLSVYWDYAKSVGLCTTLFICLLYAGQNAVAIGANVWLSAWTNDVEEHGQQNNTSVRLGVYATLGILQGLLVMLSAFTMVVGAIQAARLLHTALLHNQIRAPQSFFDTTPSGRILNRFSKDIYVIHEVLAPTILMLFNSFYTSISTIVVIVASTPLFCVVVLPLAVFYGFVQRFYVATSRQLKRLESVSRSPIFSHFSETVTGTSVIRAYGRVQDFKVLSDAKVDSNQKTTYPYIASNRWLGVHVEFVGNCVVLFSALFAVIGRNSLNPGLVGLSVSYALQVTLSLNWMIRTLSDLESNIIAVERVKEYSKTETEAPWVLESNRAPEGWPRSGVVEFRNYSVRYRPGLELVLKNLTLHVQGGEKVGIVGRTGAGKSSMTLCLFRILEAAEGEIFIDGLNVAHIGLHDLRSQLTIIPQDPILFSGTLRMNLDPFGRYSDEDIWRTLELSHLSAFVSSQPTGLDFQCSEGGDNLSVGQRQLVCLARALLRKSRVLVLDEATAAIDLETDDLIQGTIRTQFEDCTVLTIAHRLNTIMDYNRVLVLDKGVVAEFDSPVNLIAAGGIFYGMAKDAGLA
With B1, the Km in [10] came out at 110 µM.
